The text below walks through data of EP0168181A1, “Cyclic amides” (IMPERIAL CHEMICAL INDUSTRIES PLC, priority 1984, dated 1986).

The test system of the test is aldose reductase. Briefly: in vivo aldose reductase inhibition in streptozotocin-diabetic rats (residual sorbitol in sciatic nerve). The following applies: oral dose necessary to reduce residual sorbitol level in sciatic nerve of dosed diabetic rat to level similar to normal undosed rat; dosed daily 2-5 days. As to the method: Thus, rats are made diabetic (as evidenced by severe glucosuria being present) by dosing with streptozotocin. The animals are then dosed daily with the test compound for 2-5 days. The animals are then killed 2-4 hours after the final dose and the eye lenses and/or sciatic nerves are removed. After a standard work-up procedure the residual sorbitol levels in each tissue are determined by gas liquid chromatography after conversion to the poly-trimethylsilyl derivatives. Inhibition of aldose reductase in vivo is then assessed by comparing the residual sorbitol levels in tissues from the dosed diabetic group of rats with those of an undosed group of diabetic rats and an undosed, normal group of rats.
In the above in vivo test, an effective dose (ED) may be defined as the oral dose necessary to reduce the residual sorbitol level in the sciatic nerve of a dosed rat to a level similar to that in sciatic nerve in a normal, undosed-rat.

With `O=C1CC2(C(=O)N1)C(=O)N(Cc1ccc(Br)cc1F)c1c(Cl)cccc12` (single isomer, unassigned) [1'-(4-bromo-2-fluorobenzyl)-7'-chloro-spiro[pyrrolidine-3,3'-indoline]-2,2'5-trione], the “oral ED” value is “approximately 1.1 mg./kg”.

With `O=C1CC2(C(=O)N1)C(=O)N(Cc1ccc(Br)cc1F)c1c(F)cccc12` (single isomer, unassigned) [l'-(4-bromo-2-fluorobenzyl)-7'-fluoro-spiro[pyrrolidine-3,3'-indolinel-2,2',5-trione], the “oral ED” value is “approximately 5.6 mg./kg”.
